The results in this text go back to ChEMBL document CHEMBL4184144, “Design, synthesis and biological evaluation of fucose-truncated monosaccharide analogues of ipomoeassin F” (Bioorg Med Chem Lett, 2017).

What all share (assay type): functional, cell-based
Experiment [1] has as its system MCF7. Briefly: Antiproliferative activity against human MCF7 cells after 72 hrs by MTT assay. Conditions: MCF7, 72 h.
A further experiment has as its system U-937. The experiment is described as follows: Antiproliferative activity against human U937 cells.
Experiment [2] relates to MDA-MB-231. Briefly: Antiproliferative activity against human MDA-MB-231 cells after 72 hrs by alamarBlue assay. Conditions: MDA-MB-231, 72 h.
The test system of experiment [3] is MCF7. The experiment is described as follows: Antiproliferative activity against human MCF7 cells at 10 uM after 72 hrs by MTT assay. (Formazan colour is commonly taken as a measure of viable cells.)
The subject of another experiment is Jurkat. The experiment is described as follows: Antiproliferative activity against human Jurkat cells.
Experiment [4] has as its system MDA-MB-231. The experiment is described as follows: Antiproliferative activity against human MDA-MB-231 cells at 10 uM after 72 hrs by alamarBlue assay.
Another experiment concerns HeLa. The experiment is described as follows: Antiproliferative activity against human HeLa cells.

Calls of active or inactive are those of the source. No cut-off for these calls is given here.

As to `C/C=C(\C)C(=O)O[C@@H]1[C@@H](O)[C@@H]2O[C@H]3[C@H](O[C@@H](CCCCC)CCCCCCC(=O)CCC(=O)OC[C@@H](O2)[C@H]1OC(=O)/C=C/c1ccccc1)O[C@H](C)[C@H](OC(C)=O)[C@@H]3O`, the IC50 (commonly the midpoint of a concentration-inhibition curve) in the experiment on MCF7 [1] is 43.7 nM; in the experiment on U-937, 5.4 nM; in the experiment with MDA-MB-231 [2], 6.5 nM; in the experiment with Jurkat, 6.1 nM; in the experiment with HeLa it was 16.4 nM. The result with MCF7 [3] and in the experiment with MDA-MB-231 [4] was Active.

Regarding `C/C=C(\C)C(=O)O[C@@H]1[C@@H](O)[C@@H]2O[C@@H](CCCCC)CCCCCCC(=O)CCC(=O)OC[C@@H](O2)[C@H]1OC(=O)/C=C/c1ccccc1`, the outcome with MCF7 [3] and in the experiment on MDA-MB-231 [4] was inactive.

As to `C/C=C(\C)C(=O)O[C@@H]1[C@@H](O)[C@@H]2O[C@H]3[C@H](O[C@@H](CCCCC)CCCCCCC(=O)CCC(=O)OC[C@@H](O2)[C@H]1OC(=O)/C=C/c1ccccc1)O[C@H](C)[C@H](OC(C)=O)[C@@H]3OC(C)=O`, the IC50 in the experiment with MCF7 [1] came out at 216 nM; in the experiment on U-937, 79.8 nM; in the experiment with MDA-MB-231 [2] it was 16.5 nM; in the experiment on Jurkat it was 82.6 nM; in the experiment on HeLa it was 138 nM.

Regarding `C/C=C(\C)C(=O)O[C@@H]1[C@@H](O)[C@@H]2O[C@H]3[C@H](O[C@@H](CCCCC)CCCCCCC(=O)CCC(=O)OC[C@@H](O2)[C@H]1OC(=O)/C=C/c1ccccc1)O[C@H](C)[C@H](O)[C@@H]3O`, the 50% inhibitory concentration (IC50) in the experiment with MCF7 [1] turned out to be 86.7 nM; in the experiment with U-937 it was 72.5 nM; in the experiment on MDA-MB-231 [2], 131 nM; in the experiment on Jurkat it was 139 nM; with HeLa it was 133 nM.

As to `C/C=C(\C)C(=O)O[C@H]1[C@@H]2O[C@@H](CCCCC)CCCCCCC(=O)CCC(=O)OC[C@@H](O2)[C@@H](O)[C@@H]1OC(=O)/C=C/c1ccccc1`, the result in the experiment on MCF7 [3] and in the experiment with MDA-MB-231 [4] was inactive.

Consider `C/C=C(\C)C(=O)O[C@@H]1[C@@H](O)[C@@H]2OCCO[C@@H](CCCCC)CCCCCCC(=O)CCC(=O)OC[C@@H](O2)[C@H]1OC(=O)/C=C/c1ccccc1`, for which the outcome in the experiment with MCF7 [3] and in the experiment on MDA-MB-231 [4] was inactive.
